Measurements as given in patent EP1247803A2, “Indolinone compounds suitable for modulation of protein kinases” (Sugen, Inc., priority 1996, dated 1998).

Biological target: T1, EGFR (Homo sapiens, UniProt P00533)
T1 construct: Add 7 ug A431 cell lysate per well (EGFR source); endogenous in cells; host or cells: A431
Assay: EGFR ELISA assay (in vitro kinase activity, EGFR captured from A431 cell lysate)
Type: biochemical
Design: concentration or dose not given beside the values
Outline: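 EGFR from A431 lysate was captured on anti-EGFR antibody-coated plates and preincubated with compounds for 30 min. Autophosphorylation ran 5 min with 3 uM ATP and 5 mM MnCl2 (final), stopped with 20 mM EDTA. Phosphotyrosine was detected by anti-pTyr ELISA with ABTS/H2O2, read at 410 nm.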

T1 sequence (P00533 25-1210): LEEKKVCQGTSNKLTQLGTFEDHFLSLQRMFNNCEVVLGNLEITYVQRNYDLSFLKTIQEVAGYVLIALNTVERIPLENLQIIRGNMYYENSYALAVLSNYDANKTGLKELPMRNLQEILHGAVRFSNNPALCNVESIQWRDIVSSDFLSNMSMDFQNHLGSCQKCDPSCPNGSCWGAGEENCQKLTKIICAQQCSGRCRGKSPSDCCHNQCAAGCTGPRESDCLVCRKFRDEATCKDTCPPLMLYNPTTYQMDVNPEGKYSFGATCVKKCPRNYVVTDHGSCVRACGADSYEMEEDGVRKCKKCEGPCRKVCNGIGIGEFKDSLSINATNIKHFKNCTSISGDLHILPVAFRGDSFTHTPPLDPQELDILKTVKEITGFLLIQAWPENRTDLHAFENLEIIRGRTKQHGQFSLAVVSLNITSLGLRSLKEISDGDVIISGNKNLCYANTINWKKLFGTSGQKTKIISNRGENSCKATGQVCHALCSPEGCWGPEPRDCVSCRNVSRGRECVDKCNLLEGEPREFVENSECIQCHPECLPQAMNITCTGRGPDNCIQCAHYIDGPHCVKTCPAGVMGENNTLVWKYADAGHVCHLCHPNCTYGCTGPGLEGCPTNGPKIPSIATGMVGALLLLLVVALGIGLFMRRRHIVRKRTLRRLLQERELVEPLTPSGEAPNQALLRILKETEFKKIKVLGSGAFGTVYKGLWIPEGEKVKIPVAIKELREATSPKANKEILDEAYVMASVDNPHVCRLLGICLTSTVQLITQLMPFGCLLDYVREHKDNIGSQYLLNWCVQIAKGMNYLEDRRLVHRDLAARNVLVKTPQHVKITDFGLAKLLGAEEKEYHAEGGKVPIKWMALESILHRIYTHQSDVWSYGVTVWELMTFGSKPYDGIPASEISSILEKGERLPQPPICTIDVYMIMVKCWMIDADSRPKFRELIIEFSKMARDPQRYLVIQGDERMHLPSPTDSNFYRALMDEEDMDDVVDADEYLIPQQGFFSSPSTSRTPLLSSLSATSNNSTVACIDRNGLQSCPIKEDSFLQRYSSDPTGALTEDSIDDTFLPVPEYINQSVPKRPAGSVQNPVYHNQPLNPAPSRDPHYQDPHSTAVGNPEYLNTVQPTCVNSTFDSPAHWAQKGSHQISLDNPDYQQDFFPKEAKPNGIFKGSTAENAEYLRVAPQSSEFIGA

| Structure (SMILES) | Biochem EGFR %Inhibition |
| --- | --- |
| Cc1[nH]c(C=C2C(=O)Nc3c(Br)cc(Br)cc32)c(Br)c1Br [10717/A11] | 59.9% |
| O=C1Nc2ccc(S(=O)(=O)Nc3ccc(C(F)(F)F)cc3)cc2C1=Cc1ccc2ccccc2c1O [10718/E04] | 16.4% |
| CCOC(=O)CCc1c(C(=O)OCC)[nH]c(C=C2C(=O)Nc3ccc(S(=O)(=O)Nc4ccc(C(F)(F)F)cc4)cc32)c1CC(=O)OCC [10718/E05] | -3.1% |
| CCOC(=O)c1cc(C=C2C(=O)Nc3ccc(S(=O)(=O)Nc4ccc(C(F)(F)F)cc4)cc32)oc1C [10718/E06] | 2.0% |
| COC(=O)c1[nH]c(C)c(C=C2C(=O)Nc3ccc(S(=O)(=O)Nc4ccc(C(F)(F)F)cc4)cc32)c1C(=O)OC [10718/E07] | 13.9% |
| O=C1Nc2ccc(S(=O)(=O)Nc3ccc(C(F)(F)F)cc3)cc2C1=Cc1ccc(Cl)c([N+](=O)[O-])c1 [10718/E08] | 9.3% |
| Cc1c(O)ccc(C=C2C(=O)Nc3ccc(S(=O)(=O)Nc4ccc(C(F)(F)F)cc4)cc32)c1O [10718/E09] | 17.0% |
| O=C1Nc2ccc(S(=O)(=O)Nc3ccc(C(F)(F)F)cc3)cc2C1=Cc1ccco1 [10718/E10] | -7.5% |
| O=C1Nc2ccc(S(=O)(=O)Nc3ccc(C(F)(F)F)cc3)cc2C1=Cc1ccc([N+](=O)[O-])o1 [10718/E11] | -15.2% |
| COc1c([N+](=O)[O-])cc(C=C2C(=O)Nc3ccc(S(=O)(=O)Nc4ccc(C(F)(F)F)cc4)cc32)cc1C(C)(C)C [10733/E03] | 10.7% |
| COc1c(C(C)(C)C)cc(C=C2C(=O)Nc3ccc(S(=O)(=O)Nc4ccc(C(F)(F)F)cc4)cc32)cc1C(C)(C)C [10733/E04] | 45.4% |
| CC(C)(C)c1cc(C=C2C(=O)Nc3ccc(S(=O)(=O)Nc4ccc(C(F)(F)F)cc4)cc32)cc(C(C)(C)C)c1OCc1ccccc1 [10733/E05] | 58.3% |
| COc1c(C)cc(C=C2C(=O)Nc3ccc(S(=O)(=O)Nc4ccc(C(F)(F)F)cc4)cc32)cc1C [10733/E06] | 37.3% |
| Cc1cc(C=C2C(=O)Nc3ccc(S(=O)(=O)Nc4ccc(C(F)(F)F)cc4)cc32)cc(C)c1OCc1ccccc1 [10733/E07] | 19.9% |
| COc1cc(Br)cc(C=C2C(=O)Nc3ccc(S(=O)(=O)Nc4ccc(C(F)(F)F)cc4)cc32)c1O [10733/E08] | 54.2% |
| O=C1Nc2ccc(S(=O)(=O)Nc3ccc(C(F)(F)F)cc3)cc2C1=Cc1cc(Br)ccc1O [10733/E09] | 72.4% |
| O=C1Nc2ccc(S(=O)(=O)Nc3ccc(C(F)(F)F)cc3)cc2C1=Cc1cc([N+](=O)[O-])ccc1O [10733/E10] | 31.3% |
| COc1c(O)ccc(C=C2C(=O)Nc3ccc(S(=O)(=O)Nc4ccc(C(F)(F)F)cc4)cc32)c1[N+](=O)[O-] [10733/E11] | 31.6% |
| CC(C)(C)c1cc(C=C2C(=O)Nc3ccc(S(=O)(=O)N4CCOCC4)cc32)cc(I)c1OCc1ccccc1 [10733/F02] | 11.3% |
| COc1c([N+](=O)[O-])cc(C=C2C(=O)Nc3ccc(S(=O)(=O)N4CCOCC4)cc32)cc1C(C)(C)C [10733/F03] | -3.6% |
| COc1c(C(C)(C)C)cc(C=C2C(=O)Nc3ccc(S(=O)(=O)N4CCOCC4)cc32)cc1C(C)(C)C [10733/F04] | 76.3% |
| CC(C)(C)c1cc(C=C2C(=O)Nc3ccc(S(=O)(=O)N4CCOCC4)cc32)cc(C(C)(C)C)c1OCc1ccccc1 [10733/F05] | 84.6% |
| COc1c(C)cc(C=C2C(=O)Nc3ccc(S(=O)(=O)N4CCOCC4)cc32)cc1C [10733/F06] | 17.8% |
| Cc1cc(C=C2C(=O)Nc3ccc(S(=O)(=O)N4CCOCC4)cc32)cc(C)c1OCc1ccccc1 [10733/F07] | 19.2% |
| COc1cc(Br)cc(C=C2C(=O)Nc3ccc(S(=O)(=O)N4CCOCC4)cc32)c1O [10733/F08] | 17.2% |
| O=C1Nc2ccc(S(=O)(=O)N3CCOCC3)cc2C1=Cc1cc(Br)ccc1O [10733/F09] | 30.1% |
